Residues, ends and D or L forms follow the SMILES beside them.
How the values were obtained:
[1] = test system: carbapenem-susceptible P. aeruginosa (S07-10-0059); type: cell-based, Pseudomonas aeruginosa; details: carbapenem-susceptible (S07-10-0059)
Protocol: (§1) MIC assays were conducted to determine the antibacterial spectrum of these peptides. MIC is defined as the minimum concentration of a reagent, viz., peptide, in this study, required to inhibit bacterial growth after overnight incubation. Microbial strains were cultured in an L.B. medium, and midlogarithmic-phase organisms were used in the antibacterial assays. All bacteria were inoculated in an L.B. medium (approximately 10^5 CFU/mL), and MIC assays were performed with various concentrations of each peptide. All activity measurements were conducted at least three times.

[2] = test system: carbapenem-resistant P. aeruginosa (M06-06-0213); type: cell-based, Pseudomonas aeruginosa; details: P. aeruginosa M06-06-0213 (carbapenem-resistant clinical isolate); L.B. medium, approx. 10^5 CFU/mL, overnight incubation; at least three times
Protocol: as §1

[3] = test system: methicillin-susceptible S. aureus (S01-10-0202); type: cell-based, Staphylococcus aureus; details: methicillin-susceptible (S01-10-0202)
Protocol: as §1

[4] = test system: methicillin-resistant S. aureus (N07-10-0043); type: cell-based, Staphylococcus aureus; details: S. aureus MRSA N07-10-0043 (methicillin-resistant clinical isolate); L.B. medium, approx. 10^5 CFU/mL, overnight incubation; at least three times
Protocol: as §1

Measured: Antibacterial activity (MIC)

CC(C)[C@@H]1NC(=O)[C@H](CCCNC(=N)N)NC(=O)[C@H](Cc2ccccc2)NC(=O)[C@@H](NC(=O)[C@H](Cc2c[nH]c3ccccc23)NC(=O)[C@H](CCCNC(=N)N)NC(=O)[C@@H](N)CCCNC(=N)N)CSSC[C@@H](C(=O)N[C@@H](CCCNC(=N)N)C(N)=O)NC(=O)[C@H](CCCCN)NC(=O)[C@H](CCCNC(=N)N)NC(=O)[C@H](Cc2ccc(O)cc2)NC(=O)[C@@H]2CSSC[C@H](NC1=O)C(=O)N[C@@H](Cc1ccc(O)cc1)C(=O)N[C@@H](CCCNC(=N)N)C(=O)NCC(=O)N[C@@H](Cc1ccccc1)C(=O)N2 [polyphemusin I] (HELM PEPTIDE1{R.R.W.C.F.R.V.C.Y.R.G.F.C.Y.R.K.C.R.[am]}$PEPTIDE1,PEPTIDE1,4:R3-17:R3|PEPTIDE1,PEPTIDE1,8:R3-13:R3$$$V2.0; N-terminus and C-terminus assumed)
>50 µg/mL: [1] | [2] | [3] | [4]

— publication PMC10095442, “Intelligent De Novo Design of Novel Antimicrobial Peptides against Antibiotic-Resistant Bacteria Strains” (International Journal of Molecular Sciences, 2023)
